Reference: ChEMBL document CHEMBL1142596, “Diterpenes from Leucas aspera inhibiting prostaglandin-induced contractions” (J Nat Prod, 2006)
Active and inactive are the calls of the source. The rule behind the calls is not given here.

How the values were obtained:
Ileum [1] = assay: Inhibition of prostaglandin E2-induced contraction in Hartley guinea pig ileum at 76 umol by modified Magnus assay; format: functional, tissue-based; settings: Cavia porcellus
Ileum [2] = assay: Inhibition of prostaglandin E1-induced contraction in Hartley guinea pig ileum at 126 umol by modified Magnus assay; format: functional, tissue-based; settings: Cavia porcellus
[3] = test system: Radical scavenging activity; assay: Antioxidant activity assessed as DPPH-radical scavenging activity; format: functional
Ileum [4] = assay: Inhibition of prostaglandin E1-induced contraction in Hartley guinea pig ileum at 39 umol by modified Magnus assay; format: functional, tissue-based; settings: Cavia porcellus
Ileum [5] = assay: Inhibition of prostaglandin E2-induced contraction in Hartley guinea pig ileum at 64 umol by modified Magnus assay; format: functional, tissue-based; settings: Cavia porcellus
Ileum [6] = assay: Inhibition of prostaglandin E2-induced contraction in Hartley guinea pig ileum at 48 umol by modified Magnus assay; format: functional, tissue-based; settings: Cavia porcellus
Ileum [7] = assay: Inhibition of prostaglandin E1-induced contraction in Hartley guinea pig ileum at 16 umol by modified Magnus assay; format: functional, tissue-based; settings: Cavia porcellus

## C=C[C@]1(C)C=C2C(=O)C[C@H]3C(C)(C)[C@@H](O[C@@H]4O[C@H](CO)[C@@H](O)[C@H](O)[C@H]4O[C@@H]4O[C@H](CO[C@@H]5O[C@H](CO)[C@@H](O)[C@H](O)[C@H]5O)[C@@H](O)[C@H](O)[C@H]4O)CC[C@]3(C)[C@H]2CC1
Ileum [1]
  Activity: Active
Ileum [2]
  Activity: Active
[3]
  Activity: inactive

## C=C[C@]1(C)C=C2C(=O)C[C@H]3C(C)(C)[C@@H](O[C@@H]4O[C@H](CO[C@@H]5O[C@H](CO)[C@@H](O)[C@H](O)[C@H]5O)[C@@H](O)[C@H](O)[C@H]4O[C@@H]4O[C@@H](C)[C@H](O)[C@@H](O)[C@H]4O)CC[C@]3(C)[C@H]2CC1
[3]
  Activity: inactive
Ileum [4]
  Activity: Active
Ileum [5]
  Activity: Active

## C=CC(C)(O)CC(OC(C)=O)[C@]1(C)C2=C([C@H](OC(C)=O)C[C@@H]1C)[C@@](C)(COC(C)=O)C(=O)CC2 (stereo partly drawn)
Ileum [1]
  Activity: Active
Ileum [2]
  Activity: Active
[3]
  Activity: inactive

## C=C[C@]1(C)C=C2C(=O)C[C@H]3C(C)(C)[C@@H](O[C@@H]4O[C@H](CO)[C@@H](O)[C@H](O)[C@H]4O[C@@H]4O[C@H](CO)[C@@H](O)[C@H](O)[C@H]4O)CC[C@]3(C)[C@H]2CC1
[3]
  Activity: inactive
Ileum [6]
  Activity: Active
Ileum [7]
  Activity: Active

## O=C(N[C@H](COC(=O)[C@H](Cc1ccccc1)NC(=O)c1ccccc1)Cc1ccccc1)c1ccccc1
[3]
  Activity: inactive

## CC1(C)CC[C@]2(C(=O)O)CC[C@]3(C)C(=CC[C@@H]4[C@@]5(C)C[C@@H](O)[C@H](O)C(C)(C)[C@@H]5CC[C@]43C)[C@@H]2C1
[3]
  Activity: inactive
Ileum [4]
  Activity: Active
Ileum [5]
  Activity: Active

## C=CC(C)(O)CC(O)[C@]1(C)C2=C([C@H](OC(C)=O)C[C@@H]1C)[C@@](C)(COC(C)=O)C(=O)CC2 (stereo partly drawn)
[3]
  Activity: inactive

## C[C@@H]1CC(=O)[C@H]2C(C)(C)[C@@H](O)CC[C@]2(C)[C@@]12CC[C@@]1(CCOC1O)O2 (mixture of isomers)
[3]
  Activity: inactive
